# Experiments:
# T78-1/T79-A3 = assay: TE50 is termed as Bystander effect evaluated in T78-1 and T79-A3 cell lines; type: functional, Cricetulus griseus; set-up: unit not given beside the values
# T78-1 = assay: Cytotoxicity in T78-1 (NR-negative) cell lines; type: functional, cell-based; settings: Cricetulus griseus
# [1] = target: T1, Modulator of drug activity A (Escherichia coli O157:H7) (UniProt Q8X6S1); assay: IC50 ratio for NR-positive and NR-negative cell lines; type: functional
# T1 sequence (whole entry): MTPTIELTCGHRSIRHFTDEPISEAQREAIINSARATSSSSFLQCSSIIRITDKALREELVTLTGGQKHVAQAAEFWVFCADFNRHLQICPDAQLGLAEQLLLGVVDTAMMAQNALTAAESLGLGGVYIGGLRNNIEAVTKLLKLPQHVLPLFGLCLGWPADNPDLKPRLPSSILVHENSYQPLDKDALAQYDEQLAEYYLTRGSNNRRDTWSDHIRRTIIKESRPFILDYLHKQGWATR
smiles,measurement,setting,value
NC(=O)c1cc(N(CCI)CCI)c([N+](=O)[O-])cc1[N+](=O)[O-],TE50,T78-1/T79-A3,0.3
same,IC50,T78-1,71 µM
same,Ratio,[1],494
O=C(NCC(O)CO)c1cc([N+](=O)[O-])cc([N+](=O)[O-])c1N(CCCl)CCCl (stereo not drawn),TE50,T78-1/T79-A3,12
same,IC50,T78-1,919 µM
NC(=O)c1cc(N(CCBr)CCBr)c([N+](=O)[O-])cc1[N+](=O)[O-],TE50,T78-1/T79-A3,0.1
same,IC50,T78-1,633 µM
same,Ratio,[1],2530
NC(=O)c1cc([N+](=O)[O-])cc([N+](=O)[O-])c1N(CCCl)CCCl,IC50,T78-1,> 1000 µM
same,Ratio,[1],> 133
CS(=O)(=O)CCN(CCCl)c1cc(C(N)=O)c([N+](=O)[O-])cc1[N+](=O)[O-],IC50,T78-1,> 1000 µM
NC(=O)c1c([N+](=O)[O-])ccc(N(CCCl)CCCl)c1[N+](=O)[O-],IC50,T78-1,> 1000 µM
CS(=O)(=O)CCN(CCS(C)(=O)=O)c1cc(C(N)=O)c([N+](=O)[O-])cc1[N+](=O)[O-],IC50,T78-1,> 1000 µM
NC(=O)c1cc(N2CC2)c([N+](=O)[O-])cc1[N+](=O)[O-] [TRETAZICAR],TE50,T78-1/T79-A3,1
same,IC50,T78-1,158 µM
O=C(NCC(O)CO)c1cc(N(CCI)CCI)c([N+](=O)[O-])cc1[N+](=O)[O-] (stereo not drawn),TE50,T78-1/T79-A3,0.45
same,IC50,T78-1,793 µM
NC(=O)c1cc([N+](=O)[O-])cc([N+](=O)[O-])c1N(CCI)CCI,TE50,T78-1/T79-A3,0.4
same,IC50,T78-1,58 µM
NC(=O)c1cc(N(CCCl)CCCl)c([N+](=O)[O-])cc1[N+](=O)[O-],TE50,T78-1/T79-A3,3.7
same,IC50,T78-1,895 µM
same,Ratio,[1],63
NC(=O)c1cc([N+](=O)[O-])cc([N+](=O)[O-])c1N(CCBr)CCBr,TE50,T78-1/T79-A3,0.22
same,IC50,T78-1,17.5 µM
CS(=O)(=O)c1cc([N+](=O)[O-])c(C(N)=O)cc1N(CCCl)CCCl,IC50,T78-1,> 1000 µM
same,Ratio,[1],> 17
O=C(NCC(O)CO)c1cc([N+](=O)[O-])cc([N+](=O)[O-])c1N(CCI)CCI (stereo not drawn),TE50,T78-1/T79-A3,7
same,IC50,T78-1,86 µM
same,Ratio,[1],21.5
CN(C)CCNC(=O)c1c([N+](=O)[O-])ccc(N(CCCl)CCCl)c1[N+](=O)[O-],IC50,T78-1,722 µM
same,Ratio,[1],0.8
O=C(NCC(O)CO)c1cc(N(CCCl)CCCl)c([N+](=O)[O-])cc1[N+](=O)[O-] (stereo not drawn),IC50,T78-1,> 5000 µM
same,Ratio,[1],> 55
